Measurements taken from US6797712B2, “Substituted amino-furan-2-yl-acetic acid and amino-thien-2-yl-acetic acid derivatives and their use in the treatment of migraine and pain” (Gruenenthal GmbH, priority 2000, dated 2004).
Structures can show the parent of a compound that is named as a salt.

Biological target: T1, glycine binding site of the NMDA receptor channel (Rattus norvegicus, UniProt P35439)
T1 construct: from tissue; host or cells: rat brain cortex and hippocampus membrane homogenate (male Wistar rats)
Assay: Receptor binding studies, displacement of (3H)-MDL 105,519 from brain membrane homogenates
Conditions: for Displacement (%, 10 μmol) / inhibition at 10 µM: percentage of bonded radioactive ligand (3H)-MDL 105,519 displaced from specific binding at 10 μM of test substance; for Ki: glycine binding site of the NMDA receptor channel, rat cortex/hippocampus membrane homogenate, 1 nmol/l (3H)-MDL 105,519, from IC50 by Cheng-Prussoff equation; for inhibition at 10 µM: read-out: Displacement (%, 10 μmol)
Protocol: The tests to determine the affinity of the compounds of formula (I) according to the invention for the glycine binding site of the NMDA receptor channel were carried out on brain membrane homogenates (homogenate of cortex and hippocampus area from the brains of male rats, Wistar strain) (B. M. Baron, B. W. Siegel, B. L. Harrison, R. S. Gross, C. Hawes and P. Towers, Journal of Pharmacology and Experimental Therapeutics, (1996), Vol. 279, p. 62).
To that end, cortex and hippocampus from freshly removed rat brains were exposed and homogenized, while cooling with ice, in 5 mmol/l of TRIS acetate buffer, […] of saccharose pH 7.4 (10 ml/g fresh weight) using a Potter homogenizer (Braun/Melsungen; 10 piston strokes at 500 rpm) and then centrifuged for 10 minutes at 1000 g and 4° C. The first supernatant was collected and the sediment was again homogenized, while cooling with ice, with 5 mmol/l of TRIS acetate buffer, 0.32 mol/l of saccharose pH 7.4 (5 ml/g original fresh weight) using the Potter homogenizer (10 piston strokes at 500 rpm) and centrifuged for 10 minutes at 1000 g and 4° C. The resulting supernatant was combined with the supernatant from the first centrifugation and centrifuged for 20 minutes at 17,000 g and 4° C. The supernatant from this centrifugation was discarded and the membrane sediment was taken up in 5 mmol/l of TRIS acetate buffer pH 8.0 (20 ml/g original fresh weight) and homogenized with 10 piston strokes at 500 rpm.
The membrane homogenate was then incubated for one hour at 4° C. and centrifuged for 30 minutes at 50,000 g and 4° C. The supernatant was discarded and the centrifuge tube containing the membrane sediment was closed with Parafilm and frozen for 24 hours at −20° C. On the following day, the membrane sediment was thawed and taken up in 5 mmol/l of ice-cold TRIS acetate buffer, 0.1% saponin (w/v) pH 7.0 (10 ml/g original fresh weight) and homogenized with 10 piston strokes at 500 rpm and then centrifuged for 20 minutes at 50,000 g and 4° C. The resulting supernatant was discarded and the sediment was taken up in a small volume in 5 mmol/l of TRIS acetate buffer pH 7.0 (about 2 ml/g original fresh weight) and again homogenized with 10 piston strokes at 500 rpm. After determination of the protein content, the membrane homogenate was adjusted to a protein concentration of 10 mg of protein/ml with 5 mmol/l TRIS acetate buffer pH 7.0, and was frozen in aliquots until testing.
For the receptor binding test, aliquots were thawed, diluted 1:10 with 5 mmol/l of TRIS acetate buffer pH 7.0, homogenized, while cooling with ice, with 10 piston strokes at 500 rpm using the Potter homogenizer (10 piston strokes at 500 rpm) and centrifuged for 60 minutes at 55,000 g and 4° C. The supernatant was decanted off and the membrane sediment was adjusted to a protein concentration of 1 mg/ml with 50 mmol/l of ice-cold TRIS acetate buffer pH 7.0 and again homogenized with 10 piston strokes at 500 rpm and maintained in suspension in an ice-bath while stirring with a magnetic stirrer. Of that membrane homogenate, 100 μl per 1 ml batch were used in the receptor binding test (0.1 mg protein/ml in the final batch).
In the binding test, 50 mmol/l of TRIS acetate buffer pH 7.0 were used as the buffer, and 1 nmol/l of (^3H)-MDL 105,519 (B. M. Baron et al. 1996) was used as the radioactive ligand. The proportion of non-specific binding was determined in the presence of 1 mmol/l of glycine.
In further batches, the compounds according to the invention were added in series of concentrations and the displacement of the radioactive ligand from its specific binding to the glycine binding site of the NMDA receptor channel was determined. The respective triplicate batches were incubated for 120 minutes at 4° C. and then harvested by means of filtration through glass fiber filter mats (GF/B) for determination of the radioactive ligand bonded to the membrane homogenate. […]

Structure (SMILES)	binding to the glycine binding site of the NMDA ion channel (statement in words) (general statement in the description, no values)	Displacement (%, 10 μmol)	Ki	inhibition at 10 µM
COc1ccc(NC(C(=O)O)c2cccs2)cc1 (centres unmarked) [(4-methoxy-phenylamino)-thien-2-yl-acetic acid, reference compound]	bind selectively to the glycine binding site of the NMDA ion channel	–	–	–
CSCc1ccc(C(Nc2cc(Cl)cc(Cl)c2)C(=O)O)o1 (centres unmarked) [Example 106, (3,5-Dichloro-phenylamino)-(5-methylsulfanylmethyl-furan-2-yl)-acetic acid]	–	65%	–	–
CSCc1ccc(C(Nc2cc(Cl)cc(Cl)c2)C(=O)O)o1.Cl (centres unmarked) [Example 106-HCl, (3,5-Dichloro-phenylamino)-(5-methylsulfanylmethyl-furan-2-yl)-acetic acid hydrochloride]	–	91%	–	–
CSCc1ccc(C(Nc2cc(Cl)cc(Cl)c2)C(=O)O)o1.[Na] (centres unmarked) [Example 106-Na, (3,5-Dichloro-phenylamino)-(5-methylsulfanylmethyl-furan-2-yl)-acetic acid sodium]	–	78%	2980 nM	–
O=C(O)C(Nc1cc(Cl)cc(Cl)c1)c1ccc(CS)o1 (centres unmarked) [Example 107, (3,5-Dichloro-phenylamino)-(5-mercaptomethyl-furan-2-yl)-acetic acid]	–	–	–	101%
O=C(O)C(Nc1cc(Cl)cc(Cl)c1)c1ccc(CO)s1 (centres unmarked) [Example 109, (3,5-Dichloro-phenylamino)-(5-hydroxymethyl-thiophen-2-yl)-acetic acid]	–	–	–	66%
CC(=O)SCc1ccc(C(Nc2cc(Cl)cc(Cl)c2)C(=O)O)o1 (centres unmarked) [Example 110, (5-Acetylsulfanylmethyl-furan-2-yl)-(3,5-dichloro-phenylamino)-acetic acid]	–	–	120 nM	104%
CCc1ccc(C(Nc2cc(Cl)cc(Cl)c2)C(=O)O)s1 (centres unmarked) [Example 111, (3,5-Dichloro-phenylamino)-(5-ethyl-thiophen-2-yl)-acetic acid]	–	–	–	44%
O=C(O)C(Nc1cccc(Cl)c1)c1ccc(CS)o1 (centres unmarked) [Example 113, (3-Chloro-phenylamino)-(5-mercaptomethyl-furan-2-yl)-acetic acid]	–	–	–	99%
O=C(O)C(Nc1ccc(Cl)c(Cl)c1)c1ccc(CS)o1 (centres unmarked) [Example 114, (3,4-Dichloro-phenylamino)-(5-mercaptomethyl-furan-2-yl)-acetic acid]	–	–	–	45%
CC(C)(C)c1ccc(C(Nc2cc(Cl)cc(Cl)c2)C(=O)O)o1 (centres unmarked) [Example 119-HCl, (5-tert-Butylfuran-2-yl)-(3,5-dichlorophenylamino)-acetic acid hydrochloride]	–	–	–	91%
O=C(O)C(Nc1cc(Cl)cc(Cl)c1)c1ccc(CSSCc2ccco2)o1 (centres unmarked) [Example 120, (3,5-Dichlorophenylamino)-[5-(furan-2-ylmethyldisulfanylmethyl)-furan-2-yl]-acetic acid]	–	–	470 nM	103%
CSSCc1ccc(C(Nc2cc(Cl)cc(Cl)c2)C(=O)O)o1 (centres unmarked) [Example 121, (3,5-Dichlorophenylamino)-(5-methyldisulfanylmethyl-furan-2-yl)-acetic acid]	–	–	290 nM	106%
CC(=O)OCc1ccc(C(Nc2cc(Cl)cc(Cl)c2)C(=O)O)o1 (centres unmarked) [Example 123, (5-Acetoxymethylfuran-2-yl)-(3,5-dichlorophenylamino)-acetic acid]	–	–	5030 nM	60%
Cc1ccc(C(Nc2cc(Cl)cc(Cl)c2)C(=O)O)s1 (centres unmarked) [Example 125-Na, (3,5-Dichlorophenylamino)-(5-methylthiophen-2-yl)-acetic acid sodium salt]	–	–	5030 nM	63%
Cc1csc(C(Nc2cc(Cl)cc(Cl)c2)C(=O)O)c1 (centres unmarked) [Example 126, (3,5-Dichlorophenylamino)-(4-methylthiophen-2-yl)-acetic acid]	–	–	15400 nM	52%
O=C(O)C(Nc1cc(Cl)cc(Cl)c1)c1ccc(Cl)s1 (centres unmarked) [Example 127, (5-Chlorothiophen-2-yl)-(3,5-dichlorophenylamino)-acetic acid]	–	–	2570 nM	68%
O=C([O-])C(Nc1cc(Cl)cc(Cl)c1)c1ccc(Cl)s1.[Na+] (centres unmarked) [Example 127-Na, (3,5-Dichlorophenylamino)-(5-chlorothiophen-2-yl)-acetic acid sodium salt]	–	72%	–	–
